# In patent US8192962B2, “Processes for detecting toxic substances” (Daikin Industries, Ltd., priority 2001, dated 2012):
# Tested on: Energy system protein genes
# Test: DNA chip mRNA expression in yeast, energy system protein genes (Table 4)
# Format: cell-based, Saccharomyces cerevisiae S288C
# In short: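 Whole-genome yeast DNA chip hybridization (65° C., >12 h) of Cy-labeled cDNA from S288C cells exposed 2 h at 25° C. to a sub-lethal toxicant dose in YPD; value is intensity relative to chemical-free control.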
smiles,measurement,setting,value
"[Cl][Pb][Cl] [(4), PbCl2]",The level of expressed mRNA in the presence of chemical substance/The level of expressed mRNA in the absence of chemical substance,yeast gene YAL060W,2.7
same,The level of expressed mRNA in the presence of chemical substance/The level of expressed mRNA in the absence of chemical substance,"yeast gene YBL058W, cells incubated two hours with the chemical substance",1.1
same,The level of expressed mRNA in the presence of chemical substance/The level of expressed mRNA in the absence of chemical substance,"yeast gene YBL099W, cells incubated two hours with the chemical substance",1.4
same,The level of expressed mRNA in the presence of chemical substance/The level of expressed mRNA in the absence of chemical substance,"yeast gene YBR001C, cells incubated two hours with the chemical substance",1.4
same,The level of expressed mRNA in the presence of chemical substance/The level of expressed mRNA in the absence of chemical substance,"yeast gene YBR185C, cells incubated two hours with the chemical substance",2.0
same,The level of expressed mRNA in the presence of chemical substance/The level of expressed mRNA in the absence of chemical substance,"yeast gene YBR221C, cells incubated two hours with the chemical substance",1.5
same,The level of expressed mRNA in the presence of chemical substance/The level of expressed mRNA in the absence of chemical substance,yeast gene YCL040W,2.0
same,The level of expressed mRNA in the presence of chemical substance/The level of expressed mRNA in the absence of chemical substance,yeast gene YCR012W,1.2
same,The level of expressed mRNA in the presence of chemical substance/The level of expressed mRNA in the absence of chemical substance,"yeast gene YCR046C, cells incubated two hours with the chemical substance",1.6
same,The level of expressed mRNA in the presence of chemical substance/The level of expressed mRNA in the absence of chemical substance,"yeast gene YCR105W, cells incubated two hours with the chemical substance",3.0
same,The level of expressed mRNA in the presence of chemical substance/The level of expressed mRNA in the absence of chemical substance,yeast gene YDL021W,3.7
same,The level of expressed mRNA in the presence of chemical substance/The level of expressed mRNA in the absence of chemical substance,"yeast gene YDL067C, cells incubated two hours with the chemical substance",1.3
same,The level of expressed mRNA in the presence of chemical substance/The level of expressed mRNA in the absence of chemical substance,"yeast gene YDL078C, cells incubated two hours with the chemical substance",0.8
same,The level of expressed mRNA in the presence of chemical substance/The level of expressed mRNA in the absence of chemical substance,"yeast gene YDL107W, cells incubated two hours with the chemical substance",2.2
same,The level of expressed mRNA in the presence of chemical substance/The level of expressed mRNA in the absence of chemical substance,yeast gene YDL174C,1.3
same,The level of expressed mRNA in the presence of chemical substance/The level of expressed mRNA in the absence of chemical substance,"yeast gene YDL181W, cells incubated two hours with the chemical substance",1.8
same,The level of expressed mRNA in the presence of chemical substance/The level of expressed mRNA in the absence of chemical substance,yeast gene YDR001C,1.0
same,The level of expressed mRNA in the presence of chemical substance/The level of expressed mRNA in the absence of chemical substance,"yeast gene YDR050C, cells incubated two hours with the chemical substance",1.8
same,The level of expressed mRNA in the presence of chemical substance/The level of expressed mRNA in the absence of chemical substance,"yeast gene YDR079W, cells incubated two hours with the chemical substance",1.1
same,The level of expressed mRNA in the presence of chemical substance/The level of expressed mRNA in the absence of chemical substance,"yeast gene YDR178W, cells incubated two hours with the chemical substance",2.2
same,The level of expressed mRNA in the presence of chemical substance/The level of expressed mRNA in the absence of chemical substance,yeast gene YDR231C,1.5
same,The level of expressed mRNA in the presence of chemical substance/The level of expressed mRNA in the absence of chemical substance,"yeast gene YDR298C, cells incubated two hours with the chemical substance",1.3
same,The level of expressed mRNA in the presence of chemical substance/The level of expressed mRNA in the absence of chemical substance,"yeast gene YDR377W, cells incubated two hours with the chemical substance",1.4
same,The level of expressed mRNA in the presence of chemical substance/The level of expressed mRNA in the absence of chemical substance,"yeast gene YDR529C, cells incubated two hours with the chemical substance",3.2
same,The level of expressed mRNA in the presence of chemical substance/The level of expressed mRNA in the absence of chemical substance,"yeast gene YEL024W, cells incubated two hours with the chemical substance",1.1
same,The level of expressed mRNA in the presence of chemical substance/The level of expressed mRNA in the absence of chemical substance,"yeast gene YEL039C, cells incubated two hours with the chemical substance",5.1
same,The level of expressed mRNA in the presence of chemical substance/The level of expressed mRNA in the absence of chemical substance,yeast gene YER178W,1.0
same,The level of expressed mRNA in the presence of chemical substance/The level of expressed mRNA in the absence of chemical substance,yeast gene YFL057C,1.8
same,The level of expressed mRNA in the presence of chemical substance/The level of expressed mRNA in the absence of chemical substance,yeast gene YFR053C,2.2
same,The level of expressed mRNA in the presence of chemical substance/The level of expressed mRNA in the absence of chemical substance,"yeast gene YGL018C, cells incubated two hours with the chemical substance",3.0
same,The level of expressed mRNA in the presence of chemical substance/The level of expressed mRNA in the absence of chemical substance,yeast gene YGL062W,0.6
same,The level of expressed mRNA in the presence of chemical substance/The level of expressed mRNA in the absence of chemical substance,"yeast gene YGL187C, cells incubated two hours with the chemical substance",1.8
same,The level of expressed mRNA in the presence of chemical substance/The level of expressed mRNA in the absence of chemical substance,"yeast gene YGL191W, cells incubated two hours with the chemical substance",1.8
same,The level of expressed mRNA in the presence of chemical substance/The level of expressed mRNA in the absence of chemical substance,"yeast gene YGL205W, cells incubated two hours with the chemical substance",0.8
same,The level of expressed mRNA in the presence of chemical substance/The level of expressed mRNA in the absence of chemical substance,"yeast gene YGL256W, cells incubated two hours with the chemical substance",1.3
same,The level of expressed mRNA in the presence of chemical substance/The level of expressed mRNA in the absence of chemical substance,yeast gene YGR043C,7.9
same,The level of expressed mRNA in the presence of chemical substance/The level of expressed mRNA in the absence of chemical substance,"yeast gene YGR062C, cells incubated two hours with the chemical substance, 25° C., YPD medium",1.4
same,The level of expressed mRNA in the presence of chemical substance/The level of expressed mRNA in the absence of chemical substance,"yeast gene YGR087C, cells incubated two hours with the chemical substance",0.6
same,The level of expressed mRNA in the presence of chemical substance/The level of expressed mRNA in the absence of chemical substance,"yeast gene YGR174C, cells incubated two hours with the chemical substance",2.4
same,The level of expressed mRNA in the presence of chemical substance/The level of expressed mRNA in the absence of chemical substance,yeast gene YGR192C,1.0
same,The level of expressed mRNA in the presence of chemical substance/The level of expressed mRNA in the absence of chemical substance,yeast gene YGR244C,1.6
same,The level of expressed mRNA in the presence of chemical substance/The level of expressed mRNA in the absence of chemical substance,yeast gene YGR254W,1.3
same,The level of expressed mRNA in the presence of chemical substance/The level of expressed mRNA in the absence of chemical substance,yeast gene YHR179W,0.7
same,The level of expressed mRNA in the presence of chemical substance/The level of expressed mRNA in the absence of chemical substance,yeast gene YIL160C,3.5
same,The level of expressed mRNA in the presence of chemical substance/The level of expressed mRNA in the absence of chemical substance,"yeast gene YIR031C, cells incubated two hours with the chemical substance",0.6
same,The level of expressed mRNA in the presence of chemical substance/The level of expressed mRNA in the absence of chemical substance,yeast gene YJL052W,1.8
same,The level of expressed mRNA in the presence of chemical substance/The level of expressed mRNA in the absence of chemical substance,"yeast gene YJL121C, cells incubated two hours with the chemical substance",0.8
same,The level of expressed mRNA in the presence of chemical substance/The level of expressed mRNA in the absence of chemical substance,"yeast gene YJL166W, cells incubated two hours with the chemical substance",1.3
same,The level of expressed mRNA in the presence of chemical substance/The level of expressed mRNA in the absence of chemical substance,"yeast gene YJL216C, cells incubated two hours with the chemical substance",0.9
same,The level of expressed mRNA in the presence of chemical substance/The level of expressed mRNA in the absence of chemical substance,yeast gene YJR009C,1.0
